Source: US20250108036A1, “COMPOSITIONS FOR REMOVING SENESCENT CELLS AND USES THEREOF” (LIFECEUTIX CO., LTD., priority 2021, published 2025)
Read-outs that look alike come from different tables or passages of the source.

Experiments:
Format in all cases: cell-based, human
HMGN1 [1] = experiment: HMGN1 ELISA in culture medium of A549 cancer cells (Example 12, Table 66); settings: Homo sapiens; for activity at 90 µM: test compound 90 μM
HMGN1 [2] = experiment: HMGN1 ELISA in culture medium of foreskin cells (Examples 10, 11; Tables 62, 63, 64); settings: Homo sapiens; for activity at 30 µM: read-out: HMGN1; for activity at 90 µM: 90 μM test compound
[3] = system: foreskin cells in which senescence was induced by doxorubicin; experiment: CellTiter-Glo cell viability of doxorubicin-induced senescent foreskin cells (Examples 1-2, 10, 11, 13; Tables 4, 63, 65); settings: Homo sapiens, 72 h, read-out: Survival (%); for viability at 30 µM: 30 μM test compound; for viability at […]: […] test compound; for viability at 90 µM: 90 μM test compound
Protocol: After 3 days, cell viability was measured using CellTiter-Glo Luminescent Cell Viability Assay (Promega) or light microscopy.

A549 = experiment: CellTiter-Glo cell viability of senescent A549 cancer cells (Example 12, Table 67); settings: Homo sapiens; for viability at 90 µM: 90 μM test compound; for viability at 270 µM: 270 μM test compound
[4] = A549, doxorubicin-induced senescent A549 cells, ELISA, DMSO = 100, read-out: HMGN1 (amount of HMGN1 secreted in the cell culture)
[5] = 30 μM test compound, doxorubicin-treated foreskin cells, DMSO = 100
[6] = 1.1 μM test compound, doxorubicin-induced senescent foreskin cells, CellTiter-Glo, 0 μM = 100
[7] = 10 μM test compound, doxorubicin-induced senescent foreskin cells, CellTiter-Glo, 0 μM = 100
[8] = doxorubicin-induced senescent foreskin cells, CellTiter-Glo, 0 μM = 100
[9] = A549, doxorubicin-induced senescent A549 cancer cells, 1.1 μM test compound, CellTiter-Glo, read-out: Survival (%)
[10] = A549, doxorubicin-induced senescent A549 cancer cells, 10 μM test compound, CellTiter-Glo, read-out: Survival (%)
[11] = A549, doxorubicin-induced senescent A549 cancer cells, 30 μM test compound, CellTiter-Glo, read-out: Survival (%)
[12] = A549, doxorubicin-induced senescent A549 cancer cells, CellTiter-Glo, read-out: Survival (%)
[13] = A549, read-out: HMGN1 (amount of HMGN1 secreted in the cell culture)
[14] = A549, doxorubicin-induced senescent A549 cells, test compound 30 μM, ELISA, DMSO = 100, read-out: HMGN1 (amount of HMGN1 secreted in the cell culture)
[15] = doxorubicin-treated foreskin cells, DMSO = 100

Row | SMILES | activity at 30 µM (HMGN1 [2]; [5]) [%] | viability at 1.1 µM [3, 6] [%] | viability at 10 µM [3, 7] [%] | viability at 30 µM [3, 8] [%] | viability at […] [3, 8] [%] | viability at 1.1 µM (A549; [9]) [%] | viability at 10 µM (A549; [10]) [%] | viability at 30 µM (A549; [11]) [%] | viability at 90 µM (A549; [12]) [%] | activity at 30 µM (HMGN1 [1]; [14]) [%] | further results
1 | Cc1ccc(-c2c(C#N)c(N)n3c(nc4ccccc43)c2C#N)cc1 [LX-1101] | 268 | 108 | 47.1 | 22.8 | 112 | 95.4 | 92.7 | 88.3 | 23.7 |  | activity at 90 µM (HMGN1 [1]; [4]): 183%
2 | NCC(=O)CCC(=O)O [LX-1103, 5-Aminolevulinic acid, reference compound] |  | 104 | 99.6 | 95.2 | 98.9 | 96.6 | 95.1 | 91 | 91.1 |  | activity at 270 µM (HMGN1 [1]; A549, doxorubicin-induced senescent A549 cells, test compound 270 μM, ELISA, DMSO = 100, read-out: HMGN1 (amount of HMGN1 secreted in the cell culture)): 158%; activity at 270 µM (HMGN1 [2]; 270 μM test compound, doxorubicin-treated foreskin cells, DMSO = 100): 172%; viability at 90 µM [3, 8]: 88%; viability at 270 µM ([3]; 270 μM test compound, doxorubicin-induced senescent foreskin cells, CellTiter-Glo, 0 μM = 100): 61.3%; viability at 270 µM (A549; [12]): 63.7%
3 | CCCCCCCCCCCCCCCC[P+](c1ccccc1)(c1ccccc1)c1ccccc1 [LX-1201, Hexadecyltriphenylphosphonium] |  |  |  |  |  |  |  |  |  |  | activity at 30 µM (HMGN1 [1]; [13]): 289%; activity at 30 µM (HMGN1 [2]): 311%; viability at 1.1 µM [3]: 23%; viability at 1.1 µM (A549; A549, read-out: Survival (%)): 47.3%
4 | COC1=C(OC)C(=O)C(CCCCCCCCCC[P+](c2ccccc2)(c2ccccc2)c2ccccc2)=C(C)C1=O [LX-1203, Mitoquinone] | 311 |  | 1.5 |  | 38.2 | 88.7 | 15.5 |  |  | 298 | 
5 | Clc1ccc(C(c2ccccc2Cl)C(Cl)Cl)cc1 (stereo not shown) [LX-1301, Mitotane, reference compound] | 281 | 104 | 83 | 0.4 | 106 | 106 | 101 | 17.5 |  | 318 | 
6 | O=C(O)c1cc(/N=N/c2ccc(S(=O)(=O)Nc3ccccn3)cc2)ccc1O [LX-1302, Sulfasalazine, reference compound] |  | 102 | 92.2 | 79.6 | 105 | 95.5 | 102 | 102 | 69.6 |  | activity at 90 µM (HMGN1 [1]; [4]): 147%; activity at 90 µM (HMGN1 [2]; [15]): 171%; viability at 90 µM [3, 8]: 52.4%; viability at 270 µM (A549; [12]): 19.8%
7 | C[C@H](CN1CCCC1)C(=O)c1ccc(C(F)(F)F)cc1 [LX-1402, Lanperisone, reference compound] | 304 | 101 | 15.6 | 2.1 | 97.6 | 97.6 | 81.1 | 29.5 |  | 248 | 
8 | Cc1ccc(C(=O)C(C)CN2CCCCC2)cc1 (stereo not shown) [LX-1403, Tolperisone, reference compound] | 282 | 102 | 55.4 | 18.3 | 97.6 | 97.6 | 70 | 8.4 |  | 306 | 
9 | CCc1ccc(C(=O)C(C)CN2CCCC2)cc1 (stereo not shown) [LX-1405, Inaperisone, reference compound] | 219 | 102 | 69.6 | 28.5 | 92.7 | 97.1 | 82.8 | 37.4 |  | 187 | 
10 | CCN(CC)C(=S)SSC(=S)N(CC)CC [LX-1601, Disulfiram, reference compound] | 154 | 93.7 | 95.6 | 61.4 | 90 | 114 | 118 | 74.2 | 3.1 |  | activity at 90 µM (HMGN1 [1]; [4]): 257%
11 | Cc1c(-c2ccc(-c3ccccc3F)cc2)nc2ccc(F)cc2c1C(=O)O [LX-1602, Brequinar, reference compound] | 228 | 109 | 57.7 | 36.4 | 93.8 | 94.3 | 96.5 | 39.8 |  | 197 | 
12 | Cc1oncc1C(=O)Nc1ccc(C(F)(F)F)cc1 [LX-1603, Leflunomide, reference compound] |  | 101 | 91.1 | 84.3 | 95.6 | 99.6 | 95.7 | 96.5 | 49.8 |  | activity at 90 µM (HMGN1 [1]; [4]): 163%; activity at 90 µM (HMGN1 [2]; [15]): 168%; viability at 90 µM [3, 8]: 48.3%
13 | Cc1c(O)ccc2c1OCC(c1ccc(O)cc1)C2c1ccc(O)cc1 (stereo not shown) [LX-1605] | 284 | 83.4 | 43.7 | 11.3 | 63.8 | 91.7 | 41.8 | 6.4 |  | 338 | 
14 | CS(=O)(=O)CCNCc1ccc(-c2ccc3ncnc(Nc4ccc(OCc5cccc(F)c5)c(Cl)c4)c3c2)o1 [LX-1607, Lapatinib, reference compound] | 238 | 77 | 54.3 | 32.8 | 68 | 95.7 | 62.7 | 15.1 |  | 311 | 
15 | CCOc1cc2ncc(C#N)c(Nc3ccc(OCc4ccccn4)c(Cl)c3)c2cc1NC(=O)/C=C/CN(C)C [LX-1608, Neratinib, reference compound] |  |  |  |  |  |  |  |  |  |  | activity at 30 µM (HMGN1 [1]; [13]): 317%; activity at 30 µM (HMGN1 [2]): 296%; viability at 1.1 µM [3]: 45.1%; viability at 10 µM [3]: 3.9%; viability at 1.1 µM (A549; A549, read-out: Survival (%)): 59.3%; viability at 10 µM (A549; A549, read-out: Survival (%)): 24.7%; viability at 30 µM (A549; A549, read-out: Survival (%)): 2.6%
16 | CO[C@]1(C(=O)N[C@@H](C)c2ccc(-n3cc(F)cn3)nc2)CC[C@H](c2nc(C)cc(Nc3cc(C)[nH]n3)n2)CC1 [LX-1902, Pralsetinib, reference compound] | 303 | 59 | 11.9 | 3.9 | 39.6 | 66.2 | 4.2 |  |  | 271 | 
17 | Cc1c(O)cccc1C(=O)N[C@@H](CSc1ccccc1)[C@H](O)CN1C[C@H]2CCCC[C@H]2C[C@H]1C(=O)NC(C)(C)C [LX-1905, Nelfinavir, reference compound] | 315 | 102 | 27.9 | 13.2 | 66.4 | 100 | 89.1 | 53.9 |  | 201 | 
18 | C[C@H]1[C@H](C)CC[C@]2(C(=O)O)CC[C@]3(C)C(=CC[C@@H]4[C@@]5(C)CC[C@H](O)C(C)(C)[C@@H]5CC[C@]43C)[C@H]12 [LX-2001, Ursolic acid] | 328 | 75.2 |  |  | 0.8 | 98.3 | 5.1 |  |  | 328 | 
19 | C[C@H]1[C@H](C)CC[C@]2(C(=O)O)CC[C@]3(C)C(=CC[C@@H]4[C@@]5(C)C[C@@H](O)[C@H](O)C(C)(C)[C@@H]5CC[C@]43C)[C@H]12 [LX-2002, Corosolic acid] | 305 | 101 |  |  | 12.4 | 99.6 | 10.4 |  |  | 314 | 
20 | CC1(C)CC[C@]2(C(=O)O)CC[C@]3(C)C(=CC[C@@H]4[C@@]5(C)CC[C@H](O)C(C)(C)[C@@H]5CC[C@]43C)[C@@H]2C1 [LX-2003, Oleanolic acid] | 298 | 89.6 | 34.6 | 14 | 65.8 | 97.5 | 90.6 | 52.7 | 18.3 |  | activity at 90 µM (HMGN1 [1]; [4]): 218%
